Data taken from ChEMBL document CHEMBL5365515, “PARP7 Inhibition: A Promising Pathway to Advancements in Cancer Therapy” (ACS Med Chem Lett, 2023).

Target: T1, Protein mono-ADP-ribosyltransferase TIPARP (Homo sapiens, UniProt Q7Z3E1)
T1 sequence (Q7Z3E1 whole entry): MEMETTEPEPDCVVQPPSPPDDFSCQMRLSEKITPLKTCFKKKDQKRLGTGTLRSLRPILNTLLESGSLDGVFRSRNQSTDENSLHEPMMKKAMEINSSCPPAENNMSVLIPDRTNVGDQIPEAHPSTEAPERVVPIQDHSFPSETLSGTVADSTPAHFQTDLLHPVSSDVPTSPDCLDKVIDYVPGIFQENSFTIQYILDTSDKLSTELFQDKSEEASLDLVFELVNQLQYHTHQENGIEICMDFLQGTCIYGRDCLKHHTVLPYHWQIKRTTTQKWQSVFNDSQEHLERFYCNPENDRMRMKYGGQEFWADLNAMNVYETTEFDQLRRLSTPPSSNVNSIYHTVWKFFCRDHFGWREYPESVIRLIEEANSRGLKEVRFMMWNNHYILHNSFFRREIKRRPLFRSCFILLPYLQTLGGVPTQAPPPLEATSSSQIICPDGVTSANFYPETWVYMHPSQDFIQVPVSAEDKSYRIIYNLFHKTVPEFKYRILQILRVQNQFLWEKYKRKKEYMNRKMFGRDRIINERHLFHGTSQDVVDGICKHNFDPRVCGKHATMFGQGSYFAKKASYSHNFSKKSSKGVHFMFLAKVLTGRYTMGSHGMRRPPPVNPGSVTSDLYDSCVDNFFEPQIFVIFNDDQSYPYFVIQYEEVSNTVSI
Test: Inhibition of PARP7 in human NCI-H1373 cells assessed as increase in STAT1 phosphorylation at Tyr701 residue incubated for 48 hrs by LANCE Ultra TR-FRET assay
Assay type: cell-based

Row | SMILES | EC50 [nM]
1 | O=C([C@@H](O)CCNc1cc(C(F)(F)F)c(=O)[nH]n1)N1CCN(c2ncc(C(F)(F)F)cn2)CC1 | 21.3
2 | CN(CCCC(=O)N1CCN(c2ncc(C(F)(F)F)cn2)CC1)c1cc(C(F)(F)F)c(=O)[nH]n1 | 75.6
3 | O=C(CC[C@@H]1CCCN1c1cc(C(F)(F)F)c(=O)[nH]n1)N1CCN(c2ncc(C(F)(F)F)cn2)CC1 | 9.31
4 | O=C(CCCNc1cc(C(F)(F)F)c(=O)[nH]n1)N1CCN(c2ncc(C(F)(F)F)cn2)CC1 | 71.9
5 | O=C(CC[C@@H]1CCCCN1c1cc(C(F)(F)F)c(=O)[nH]n1)N1CCN(c2ncc(C(F)(F)F)cn2)CC1 | 172
6 | O=C(CCC1Cc2ccccc2N1c1cc(C(F)(F)F)c(=O)[nH]n1)N1CCN(c2ncc(C(F)(F)F)cn2)CC1 (centres undefined) | 179

Second part, the molecule after the results:

Row | EC50 [nM] | SMILES
7 | 74.1 | O=C(CCCN(c1ccccc1)c1cc(C(F)(F)F)c(=O)[nH]n1)N1CCN(c2ncc(C(F)(F)F)cn2)CC1
8 | 60.6 | O=C(CCCCc1cc(C(F)(F)F)c(=O)[nH]n1)N1CCN(c2ncc(C(F)(F)F)cn2)CC1
9 | 51.6 | CCN(CCCC(=O)N1CCN(c2ncc(C(F)(F)F)cn2)CC1)c1cc(C(F)(F)F)c(=O)[nH]n1
